Data from patent EP3782997A1, “FUSED PYRIMIDINE COMPOUNDS AND PHARMACEUTICAL COMPOSITIONS THEREOF FOR THE TREATMENT OF FIBROTIC DISEASES” (Galapagos N.V., priority 2019, dated 2021).

Each compound was assayed against hENPP2 (Homo sapiens, UniProt Q13822) (assay: Human ENPP2 (hENPP2) biochemical assay using LPC as substrate). Conditions: 150 µM LPC (palmitoyl 16:0), 37°C for 30 min.
Experimental: The principle of the assay conswasts in quantifying the released choline with an enzymatic method using choline oxidase and peroxidase. Choline oxydation by choline oxydase releases betaine and peroxide. The latter was quantified in presence of HRP that converts the peroxide detection agent TOOS (CAS# 82692-93-1) and 4-aminoantipyrine into quinoneimine dye. The appearance of quinoneimine dye was measured spectrophotometrically at 555 nm and was proportional to the amount of choline released by ENPP2. Inhibition of ENPP2 results in a decrease of the signal.
Compound IC50 values were determined in a hENPP2 (UniProtKB/SwwassProt Sequence ref Q13822) biochemical assay using LPC as substrate.
5 µL of a dilution series of compound, starting from 50 µM highest concentration, 1/3 dilution, was added to the wells. hENPP2 was used at a final concentration of 1 µg/mL or 3 µg/mL (it will be appreciated by the skilled person that the potency read out was independent of the enzyme concentration). The enzyme was diluted in 50 mM Trwas-HCl pH 8.5, 500 mM NaCl, 5 mM KCl, 10 mM CaCl2, 0.1% fatty acid free BSA in a total volume of 10 µL. The reaction was started by the addition of 10 µL of 150 µM LPC (palmitoyl 16:0; Avanti Polar Lipids, Inc., Cat# 855675) diluted in the same buffer as described above and the mixture was incubated at 37°C for 30 min. The reaction was terminated and choline quantified by the addition of a 25 µL of a mixture containing 0.6 U/mL of choline oxidase, 0.6 U/mL of peroxydase, 1.8 mM TOOS, 1.2 mM amino-antipyrine, 20 mM EGTA (stop-developer solution) diluted in the buffer described above. […] was read on an Envision plate reader (PerkinElmer, Inc.) after an incubation of 30 min at room temperature (excitation 555 nm).

IC50 [nM]	Compound
100 to 500	Cc1cc(C)cc(Nc2ncc3c(n2)CN(C2CCN(C(=O)c4ccc5[nH]nnc5c4)C2)C3)c1 (stereo not drawn) [compound 13, 1H-benzotriazol-5-yl-[3-[2-(3,5-dimethylanilino)-5,7-dihydropyrrolo[3,4-d]pyrimidin-6-yl]pyrrolidin-1-yl]methanone]
0.01 to 100	O=C(c1ccc2[nH]c(=O)oc2c1)N1CC(N2CCc3nc(Nc4cc(Cl)cc(C(F)(F)F)c4)ncc3C2)C1 [compound 14, 6-[3-[2-[3-chloro-5-(trifluoromethyl)anilino]-7,8-dihydro-5H-pyrido[4,3-d]pyrimidin-6-yl]azetidine-1-carbonyl]-3H-1,3-benzoxazol-2-one]
0.01 to 100	Cc1cc(Cl)cc(Nc2ncc3c(n2)CCN(C2CN(C(=O)c4ccc5[nH]c(=O)oc5c4)C2)C3)c1 [compound 15, 6-[3-[2-(3-chloro-5-methyl-anilino)-7,8-dihydro-5H-pyrido[4,3-d]pyrimidin-6-yl]azetidine-1-carbonyl]-3H-1,3-benzoxazol-2-one]
100 to 500	Cc1cc(Cl)cc(Nc2ncc3c(n2)CCN(C2CN(C(=O)c4ccc5[nH]nnc5c4)C2)C3)c1 [compound 16, 1H-benzotriazol-5-yl-[3-[2-(3-chloro-5-methyl-anilino)-7,8-dihydro-5H-pyrido[4,3-d]pyrimidin-6-yl]azetidin-1-yl]methanone]
0.01 to 100	O=C(c1ccc2[nH]c(=O)oc2c1)N1CC(N2Cc3cnc(Nc4cc(Cl)cc(C(F)(F)F)c4)nc3C2)C1 [compound 17, 6-[3-[2-[3-chloro-5-(trifluoromethyl)anilino]-5,7-dihydropyrrolo[3,4-d]pyrimidin-6-yl]azetidine-1-carbonyl]-3H-1,3-benzoxazol-2-one]
0.01 to 100	Cc1cc(C)cc(Nc2ncc3c(n2)CN(C2CN(C(=O)c4ccc5[nH]nnc5c4)C2)C3)c1 [compound 18, 1H-benzotriazol-5-yl-[3-[2-(3,5-dimethylanilino)-5,7-dihydropyrrolo[3,4-d]pyrimidin-6-yl]azetidin-1-yl]methanone]
100 to 500	Cc1cc(C)cc(Nc2ncc3c(n2)CN(C2CN(C(=O)c4ccc5[nH]ncc5c4)C2)C3)c1 [compound 19, [3-[2-(3,5-dimethylanilino)-5,7-dihydropyrrolo[3,4-d]pyrimidin-6-yl]azetidin-1-yl]-(1H-indazol-5-yl)methanone]
> 1000	Cc1cc(C)cc(Nc2ncc3c(n2)CN(C2CN(C(=O)c4cccc(S(N)(=O)=O)c4)C2)C3)c1 [compound 20, 3-[3-[2-(3,5-dimethylanilino)-5,7-dihydropyrrolo[3,4-d]pyrimidin-6-yl]azetidine-1-carbonyl]benzenesulfonamide]
0.01 to 100	COc1cc(Nc2ncc3c(n2)CN(C2CN(C(=O)c4ccc5[nH]c(=O)oc5c4)C2)C3)cc(OC)c1 [compound 21, 6-[3-[2-(3,5-dimethoxyanilino)-5,7-dihydropyrrolo[3,4-d]pyrimidin-6-yl]azetidine-1-carbonyl]-3H-1,3-benzoxazol-2-one]
0.01 to 100	O=C(c1ccc2[nH]nnc2c1)N1CC(N2Cc3cnc(Nc4cc(Cl)cc(C(F)(F)F)c4)nc3C2)C1 [compound 22, 1H-benzotriazol-5-yl-[3-[2-[3-chloro-5-(trifluoromethyl)anilino]-5,7-dihydropyrrolo[3,4-d]pyrimidin-6-yl]azetidin-1-yl]methanone]
0.01 to 100	COc1cc(C)cc(Nc2ncc3c(n2)CN(C2CN(C(=O)c4ccc5[nH]nnc5c4)C2)C3)c1 [compound 24, 1H-benzotriazol-5-yl-[3-[2-(3-methoxy-5-methyl-anilino)-5,7-dihydropyrrolo[3,4-d]pyrimidin-6-yl]azetidin-1-yl]methanone]
> 1000	Cc1cc(C)cc(Nc2ncc3c(n2)CN(C2CN(C(=O)c4ccc(=O)[nH]c4)C2)C3)c1 [compound 26, 5-[3-[2-(3,5-dimethylanilino) -5,7-dihydropyrrolo[3,4-d]pyrimidin-6-yl]azetidine-1-carbonyl]-1H-pyridin-2-one]
100 to 500	COc1cc(Nc2ncc3c(n2)CN(C2CCN(C(=O)c4ccc5[nH]nnc5c4)CC2)C3)cc(OC)c1 [compound 27, 1H-benzotriazol-5-yl-[4-[2-(3,5-dimethoxyanilino)-5,7-dihydropyrrolo[3,4-d]pyrimidin-6-yl]-1-piperidyl]methanone]
0.01 to 100	Cc1cc(Nc2ncc3c(n2)CN(C2CN(C(=O)c4ccc5[nH]c(=O)oc5c4)C2)C3)cc(C(F)(F)F)c1 [compound 28, 6-[3-[2-[3-methyl-5-(trifluoromethyl)anilino]-5,7-dihydropyrrolo[3,4-d]pyrimidin-6-yl]azetidine-1-carbonyl]-3H-1,3-benzoxazol-2-one]
0.01 to 100	Cc1cc(Nc2ncc3c(n2)CN(C2CN(C(=O)c4ccc5nn[nH]c5c4)C2)C3)cc(C(F)(F)F)c1 [compound 29, 3H-benzotriazol-5-yl-[3-[2-[3-methyl-5-(trifluoromethyl)anilino]-5,7-dihydropyrrolo[3,4-d]pyrimidin-6-yl]azetidin-1-yl]methanone]
0.01 to 100	O=C(c1ccc2[nH]nnc2c1)N1CC(N2Cc3cnc(Nc4ccc(C(F)(F)F)cc4)nc3C2)C1 [compound 30, 1H-benzotriazol-5-yl-[3-[2-[4-(trifluoromethyl)anilino]-5,7-dihydropyrrolo[3,4-d]pyrimidin-6-yl]azetidin-1-yl]methanone]
0.01 to 100	COc1cc(Nc2ncc3c(n2)CN(C2CN(C(=O)c4ccc5[nH]nnc5c4)C2)C3)cc(OC)c1 [compound 31, 1H-benzotriazol-5-yl-[3-[2-(3,5-dimethoxyanilino)-5,7-dihydropyrrolo[3,4-d]pyrimidin-6-yl]azetidin-1-yl]methanone]
> 1000	Cc1cc(C)cc(Nc2ncc3c(n2)CN(C2CN(C(=O)c4cc[nH]c(=O)c4)C2)C3)c1 [compound 32, 4-[3-[2-(3,5-dimethylanilino)-5,7-dihydropyrrolo[3,4-d]pyrimidin-6-yl]azetidine-1-carbonyl]-1H-pyridin-2-one]
> 1000	Cc1cc(C)cc(Nc2ncc3c(n2)CN(C2CCCN(C(=O)c4ccc5[nH]nnc5c4)C2)C3)c1 (stereo not drawn) [compound 33, 1H-benzotriazol-5-yl-[3-[2-(3,5-dimethylanilino)-5,7-dihydropyrrolo[3,4-d]pyrimidin-6-yl]-1-piperidyl]methanone]
0.01 to 100	Cc1cc(C)cc(Nc2ncc3c(n2)CN(C2CCN(C(=O)c4ccc5[nH]c(=O)oc5c4)C(C)C2)C3)c1 (stereo not drawn) [compound 35, 6-[4-[2-(3,5-dimethylanilino)-5,7-dihydropyrrolo[3,4-d]pyrimidin-6-yl]-2-methyl-piperidine-1-carbonyl]-3H-1,3-benzoxazol-2-one]
0.01 to 100	Cc1cc(C)cc(Nc2ncc3c(n2)CN(C2CCN(C(=O)c4ccc5[nH]nnc5c4)CC2(F)F)C3)c1 (stereo not drawn) [compound 37, 1H-benzotriazol-5-yl-[4-[2-(3,5-dimethylanilino)-5,7-dihydropyrrolo[3,4-d]pyrimidin-6-yl]-3,3-difluoro-1-piperidyl]methanone]
100 to 500	Cc1cc(C)cc(Nc2ncc3c(n2)CN(C2CN(C(=O)c4ccc(S(N)(=O)=O)cc4)C2)C3)c1 [compound 38, 4-[3-[2-(3,5-dimethylanilino)-5,7-dihydropyrrolo[3,4-d]pyrimidin-6-yl]azetidine-1-carbonyl]benzenesulfonamide]
> 1000	Cc1cc(C)cc(Nc2ncc3c(n2)CN(C2CCCN(C(=O)c4ccc5[nH]c(=O)oc5c4)C2)C3)c1 (stereo not drawn) [compound 39, 6-[3-[2-(3,5-dimethylanilino)-5,7-dihydropyrrolo[3,4-d]pyrimidin-6-yl]piperidine-1-carbonyl]-3H-1,3-benzoxazol-2-one]
0.01 to 100	Cc1cc(C)cc(Nc2ncc3c(n2)CN(C2CCN(C(=O)c4ccc5[nH]nnc5c4)CC2F)C3)c1 (stereo not drawn) [compound 40, 1H-benzotriazol-5-yl-[4-[2-(3,5-dimethylanilino)-5,7-dihydropyrrolo[3,4-d]pyrimidin-6-yl]-3-fluoro-1-piperidyl]methanone]
500 to 1000	Cc1cc(C)cc(Nc2ncc3c(n2)CN(C2CC4(C2)CN(C(=O)c2ccc5[nH]nnc5c2)C4)C3)c1 [compound 41, 1H-benzotriazol-5-yl-[6-[2-(3,5-dimethylanilino)-5,7-dihydropyrrolo[3,4-d]pyrimidin-6-yl]-2-azaspiro[3.3]heptan-2-yl]methanone]
100 to 500	COc1cc(Nc2ncc3c(n2)CN(C2CCN(C(=O)c4ccc5[nH]nnc5c4)C2)C3)cc(OC)c1 (stereo not drawn) [compound 42, 1H-benzotriazol-5-yl-[3-[2-(3,5-dimethoxyanilino)-5,7-dihydropyrrolo[3,4-d]pyrimidin-6-yl]pyrrolidin-1-yl]methanone]
500 to 1000	Cc1cncc(Nc2ncc3c(n2)CN(C2CN(C(=O)c4ccc5[nH]nnc5c4)C2)C3)c1 [compound 43, 1H-benzotriazol-5-yl-[3-[2-[(5-methyl-3-pyridyl)amino]-5,7-dihydropyrrolo[3,4-d]pyrimidin-6-yl]azetidin-1-yl]methanone]
